Target: T1, hERG (Homo sapiens, UniProt Q12809)
T1 construct: host or cells: CHO (Chinese hamster ovary)
Assay: hERG patch clamp assay (automated, CHO-hERG cells)
Format: cell-based
Method: The hERG inhibition assay uses a high throughput single cell planar patch clamp approach. Chinese hamster ovary cells transfected with the hERG gene (CHO-hERG) are dispensed into the PatchPlate. Amphotericin is used as a perforating agent to gain electrical access to the cells. The hERG tail current is measured prior to the addition of the test compound by perforated patch clamping. Following addition of the test compound at a defined concentration or range of concentrations a second recording of the hERG current is performed. The degree of inhibition (%) is obtained by measuring the tail current amplitude, which is induced by a one second test pulse to −40 mV after a two second pulse to +20 mV, before and after drug incubation (the difference current is normalized to control and multiplied by 100 to obtain the percent of inhibition).
Concentration (log) response curves were fitted to a logistic equation (three parameters assuming complete block of the current at very high test compound concentrations) to generate estimates of the 50% inhibitory concentration (IC50). The concentration-response relationship of each compound is constructed from the percentage reductions of current The data is usually categorized into the following classification bands:
The hERG assay was conducted by Cyprotec Inc. in its Watertown, Mass. laboratories. The concentration range tested was 0.0096-30 μM. No concentration-dependent inhibition was observed, IC50>30 μM.
The hERG inhibition assay uses a high throughput single cell planar patch clamp approach. Chinese hamster ovary cells transfected with the hERG gene (CHO-hERG) are dispensed into the PatchPlate. Amphotericin is used as a perforating agent to gain electrical access to the cells. The hERG tail current is measured prior to the addition of the test compound by perforated patch clamping. Following addition of the test compound, n=4 cells per concentration, final DMSO concentration=0.25%), a second recording of the hERG current is performed.
Post-compound hERG currents are expressed as a percentage of pre-compound hERG currents (% control current) and plotted against concentration for each compound. Where concentration dependent inhibition is observed the Hill equation is used to fit a sigmoidal line to the data and an IC50 (concentration at which 50% inhibition is observed) is determined. The assays were performed according to Haverkamp, W. et al., 2000, Eur Heart J., 21:1216-1231, Kiss, L. et al., 2003, Assay Drug Dev. Technol., 1:127-135 and Schroeder, K. et al., 2003, J. Biomol Screen, 8:50-64.

T1 sequence (Q12809 whole entry): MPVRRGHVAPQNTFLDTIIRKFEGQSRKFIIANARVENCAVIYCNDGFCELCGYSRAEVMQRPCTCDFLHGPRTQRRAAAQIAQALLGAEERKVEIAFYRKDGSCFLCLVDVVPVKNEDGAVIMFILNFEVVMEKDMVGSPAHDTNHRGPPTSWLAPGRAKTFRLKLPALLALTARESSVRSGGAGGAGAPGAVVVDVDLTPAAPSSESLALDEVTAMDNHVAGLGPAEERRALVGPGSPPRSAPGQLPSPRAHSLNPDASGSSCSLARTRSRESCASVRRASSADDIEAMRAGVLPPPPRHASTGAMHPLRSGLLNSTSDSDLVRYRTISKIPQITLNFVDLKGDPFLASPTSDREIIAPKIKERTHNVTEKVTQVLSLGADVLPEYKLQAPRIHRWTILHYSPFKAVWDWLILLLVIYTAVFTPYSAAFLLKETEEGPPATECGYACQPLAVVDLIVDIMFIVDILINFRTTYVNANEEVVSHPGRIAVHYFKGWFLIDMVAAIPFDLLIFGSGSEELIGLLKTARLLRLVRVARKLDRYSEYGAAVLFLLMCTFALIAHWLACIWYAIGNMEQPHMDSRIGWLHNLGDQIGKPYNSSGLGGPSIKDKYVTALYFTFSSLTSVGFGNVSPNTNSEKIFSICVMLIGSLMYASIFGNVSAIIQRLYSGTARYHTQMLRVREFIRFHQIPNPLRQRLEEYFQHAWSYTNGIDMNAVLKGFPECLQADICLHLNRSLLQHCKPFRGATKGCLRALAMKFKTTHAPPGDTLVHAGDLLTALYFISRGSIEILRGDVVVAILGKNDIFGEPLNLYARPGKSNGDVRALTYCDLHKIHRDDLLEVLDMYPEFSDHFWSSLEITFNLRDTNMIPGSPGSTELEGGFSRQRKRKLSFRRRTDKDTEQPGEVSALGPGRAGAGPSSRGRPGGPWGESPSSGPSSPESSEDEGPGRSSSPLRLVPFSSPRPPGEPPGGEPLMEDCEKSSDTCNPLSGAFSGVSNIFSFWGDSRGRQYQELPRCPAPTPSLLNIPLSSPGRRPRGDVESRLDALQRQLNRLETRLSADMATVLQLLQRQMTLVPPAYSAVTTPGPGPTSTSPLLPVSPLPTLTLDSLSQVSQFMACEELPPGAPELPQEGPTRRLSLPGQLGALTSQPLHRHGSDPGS

Row | SMILES | IC50 (Table 4b) | IC50 (hERG patch clamp assay, FIG. 1) | further results
1 | CCCCNc1nc(NCCN2CCOCC2)c2nc(Cl)c(NCCN3CCOCC3)nc2n1 [JB6140] | < 1 µM | – | –
2 | CN1CCN(c2nc(NCCN3CCOCC3)c3ncc(-c4ccccc4)nc3n2)CC1 [JB6059] | 5 µM | 6.2 µM | –
3 | CN1CCN(c2nc(NCCN3CCOCC3)c3nc(Cl)c(NCCN4CCOCC4)nc3n2)CC1 [JB6121, 6-chloro-2-(4-methylpiperazin-1-yl)-N^4,N^7-bis(2-morpholinoethyl)pteridine-4,7-diamine] | > 30 µM | – | IC50 (Cyprotec, concentration range tested 0.0096-30 μM): > 30 µM; hERG inhibition (up to 30 μM): no measurable hERG inhibition
4 | C[C@@H]1CN(CCNc2nc3nc(N4CCN(C)CC4)nc(NCCN4C[C@@H](C)O[C@@H](C)C4)c3nc2Cl)C[C@H](C)O1 [JB6143] | > 30 µM | – | –
5 | CCOc1nc2c(NCCN3CCOCC3)nc(NCc3ccccc3)nc2nc1NCCN1CCOCC1 [JB6180] | 0.3 µM | – | –
6 | CCOc1nc2c(NCCN3CCCC3)nc(-c3ccccc3)nc2nc1N1CCN(C)CC1 [JB6131] | < 10 µM | 8.1 µM | –
7 | CCCCNc1nc(NCCN2CCOCC2)c2nc(SCC)c(NCCN3CCOCC3)nc2n1 [JB6185] | < 0.3 µM | – | –
8 | COCCN1CCN(c2nc(NCCN3CCOCC3)c3nc(Cl)c(NCCN4CCOCC4)nc3n2)CC1 [JB6160] | > 30 µM | – | –
9 | Clc1nc2c(NCCN3CCOCC3)nc(NCc3ccccc3)nc2nc1NCCN1CCOCC1 [JB6172] | 1 µM | – | –
10 | CN1CCN(c2nc3nc(-c4ccccc4)nc(NCCN4CCOCC4)c3nc2OCCN2CCOCC2)CC1 [JB6116] | – | 13.1 µM | IC50 (human, CHO cells transfected with hERG (CHO-hERG), Table 4b): < 30 µM
